In US4351840A, “Antibacterial esters of resorcinol with ampicillin and penicillanic acid 1,1-dioxide derivatives” (priority 1981, dated 1982):
Like-named read-outs stand apart in the source and are kept apart here.

Tests used:
[1] = target: T1, beta-lactamase from Staphylococcus aureus 01A400 (Staphylococcus aureus, UniProt P00807); experiment: Inhibition of ampicillin hydrolysis by cell-free beta-lactamase (microiodometric); format: biochemical
T1 construct: Cell-free extracts were prepared by sonic treatment; endogenous in cells; host or cells: Staphylococcus aureus strain 01A400, induced with penicillin G; cell-free extract by French press
Procedure: (§1) The compounds of the present invention are thus evaluated in vitro by the ability of penicillanic acid 1,1-dioxide derivatives of the formula (IV) to inhibit the hydrolysis of beta-lactam antibiotics by beta-lactamase enzymes. The hydrolysis of ampicillin was determined by the microiodometric method of Novick [Biochem, J. 83, 236 (1962)]. Conditions for this assay are 0.5 M potassium phosphate, pH 6.5 and 37° C. Reactions were initiated by the addition of the cell-free beta-lactamase, except in the case of preincubation experiments in which the inhibitor and enzyme were incubated together in the assay mixture for 10 minutes before initiation of the reaction by addition of substrate. With the cellfree extracts of Staphylococcus aureus, Escherichia coli, Klebsiella pneumoniae and Pseudomonas aeruginosa, the substrate was ampicillin at 33 micro M (13 microg./ml). Typical specific activities of the beta-lactamase preparations were, respectively, 6,019, 88,970, 260 and 76 micromol/hr. per mg. of protein.
(§2) Cell-free extracts were prepared by sonic treatment (using three 30-s bursts at 4° C. except for S. aureus, which was broken with a French press) of cultures grown in brain heart infusion on a rotary shaker incubator. For the S. aureus, P. aeruginose, and E. cloacae strains, de novo synthesis of beta-lactamase was induced by growing a log-phase culture in the presence of a sublethal concentration of penicillin G at 100, 1,000, and 300 microg./ml, respectively, for 2.5 hr.

[2] = tested on: beta-lactamase from Escherichia coli 51A129; experiment: as above; format: biochemical; conditions: ampicillin 33 μM, pH 6.5, 37° C.
Procedure: as §1, §2

[3] = tested on: beta-lactamase from Klebsiella pneumoniae 53A129; experiment: as above; format: biochemical; conditions: ampicillin 33 μM, pH 6.5, 37° C.
Procedure: as §1, §2

[4] = target: beta-lactamase from Pseudomonas aeruginosa 52A104 (Pseudomonas aeruginosa, UniProt P24735); experiment: as above; format: biochemical; conditions: ampicillin 33 μM, pH 6.5, 37° C., read-out: % Inhibition Beta-Lactam Hydrolysis
Procedure: as §1, §2

[5] = tested on: Pseudomonas aeruginosa 52A104; experiment: Minimum inhibitory concentration on BHI agar; format: cell-based; conditions: 18 hrs., 37° C., inhibitor alone or 1:1 mixture with ampicillin
Procedure: (§3) The procedure which follows is the one recommended by the International Collaborative Study on Antibiotic Sensitivity Testing [Ericcson and Sherris, Acta. Pathologica et Microbiologia Scandinav, Supp. 217, Sections A and B: 64-68 (1971)], and employs brain heart infusion (BHI) agar and the inocula replicating device. Overnight growth tubes are diluted 100 fold for use as the standard inoculum (20,000-10,000 cells in approximately 0.002 ml are placed on the agar surface; 20 ml of BHI agar/dish). Twelve 2 fold dilutions of the test compound are employed, with initial concentration of the test drug being 200 mcg/ml. Single colonies are disregarded when reading tubes after 18 hrs. at 37° C.
(§4) These MIC's are then compared with the MIC values obtained with a combination of ampicillin and the beta-lactamase inhibitor. […] The MIC values of combinations are measured using the method described by Barry and Sabath in "Manual of Clinical Microbiology", edited by Lenette, Spaulding and Truant, 2nd Edition, 1974, American Society for Microbiology.

[6] = tested on: Serratia marcescens 63A095; experiment: Minimum inhibitory concentration on BHI agar; format: cell-based; conditions: 18 hrs., 37° C., inhibitor alone or 1:1 mixture with ampicillin
Procedure: as §3, §4

[7] = tested on: Citrobacter diversus 70C031; experiment: Minimum inhibitory concentration on BHI agar; format: cell-based; conditions: 18 hrs., 37° C., inhibitor alone or 1:1 mixture with ampicillin
Procedure: as §3, §4

[8] = tested on: Enterobacter cloacae 67B009; experiment: Minimum inhibitory concentration on BHI agar; format: cell-based; conditions: 18 hrs., 37° C., inhibitor alone or 1:1 mixture with ampicillin
Procedure: as §3, §4

[9] = tested on: Klebsiella pneumoniae 53A079; experiment: Minimum inhibitory concentration on BHI agar; format: cell-based; conditions: 18 hrs., 37° C., inhibitor alone or 1:1 mixture with ampicillin
Procedure: as §3, §4

[10] = tested on: Staphylococcus aureus 01A400; experiment: Minimum inhibitory concentration on BHI agar; format: cell-based; conditions: 18 hrs., 37° C., inhibitor alone or 1:1 mixture with ampicillin
Procedure: as §3, §4

[11] = tested on: Staphylococcus aureus 01A005; experiment: Minimum inhibitory concentration on BHI agar; format: cell-based; conditions: 18 hrs., 37° C., inhibitor alone or 1:1 mixture with ampicillin
Procedure: as §3, §4

Proteus morgani 57G001 = experiment: Minimum inhibitory concentration on BHI agar; format: cell-based; conditions: 18 hrs., 37° C., inhibitor alone or 1:1 mixture with ampicillin
Procedure: as §3, §4

Escherichia coli 51A266 = experiment: Minimum inhibitory concentration on BHI agar; format: cell-based; conditions: 18 hrs., 37° C., inhibitor alone or 1:1 mixture with ampicillin
Procedure: as §3, §4

[12] = pH 6.5, read-out: % Inhibition Beta-Lactam Hydrolysis

T1 sequence (P00807 25-281): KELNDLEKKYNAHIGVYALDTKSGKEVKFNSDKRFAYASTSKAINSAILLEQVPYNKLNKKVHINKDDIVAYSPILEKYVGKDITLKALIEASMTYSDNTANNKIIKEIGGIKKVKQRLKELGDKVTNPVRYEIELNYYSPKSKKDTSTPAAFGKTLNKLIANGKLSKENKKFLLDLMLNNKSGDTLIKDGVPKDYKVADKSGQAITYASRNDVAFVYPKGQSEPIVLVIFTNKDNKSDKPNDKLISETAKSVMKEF
Sequence of beta-lactamase from Pseudomonas aeruginosa 52A104 (P24735 27-397): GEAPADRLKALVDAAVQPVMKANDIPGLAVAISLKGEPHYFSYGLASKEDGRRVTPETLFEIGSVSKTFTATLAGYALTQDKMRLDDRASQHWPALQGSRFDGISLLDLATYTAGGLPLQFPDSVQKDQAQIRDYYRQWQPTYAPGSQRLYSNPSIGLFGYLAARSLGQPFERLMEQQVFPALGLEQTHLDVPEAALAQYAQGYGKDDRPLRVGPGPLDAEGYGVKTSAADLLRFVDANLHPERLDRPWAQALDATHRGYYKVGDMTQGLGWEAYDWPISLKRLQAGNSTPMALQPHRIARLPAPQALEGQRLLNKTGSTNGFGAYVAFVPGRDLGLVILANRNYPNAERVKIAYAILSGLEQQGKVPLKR

Compound `CC1(C)[C@H](C(=O)O)N2C(=O)[C@@H](CO)[C@H]2S1(=O)=O` [A, 6-beta-(Hydroxymethyl)pencillanic acid 1,1-dioxide] has an inhibition at 1 µM ([1]; inhibitor 1.0 μM, ampicillin 33 μM, pH 6.5, 37° C., read-out: % Inhibition Beta-Lactam Hydrolysis) of 39.3%, an inhibition at 16.5 µM ([1]; inhibitor 16.5 μM, ampicillin 33 μM, pH 6.5, 37° C., read-out: % Inhibition Beta-Lactam Hydrolysis) of 78.8% and an inhibition at 66 µM ([1]; inhibitor 66 μM, ampicillin 33 μM, pH 6.5, 37° C., read-out: % Inhibition Beta-Lactam Hydrolysis) of 98.3%. For the same compound, the “% Inhibition Beta-Lactam Hydrolysis” value ([2]; inhibitor 0.67 μM) was 92.1%, the “% Inhibition Beta-Lactam Hydrolysis” value ([2]; inhibitor 1.0 μM) was 95.7% and the “% Inhibition Beta-Lactam Hydrolysis” value ([2]; inhibitor 16.5 μM) was 100%. For the same compound, the “% Inhibition Beta-Lactam Hydrolysis” value ([2]; inhibitor 66 μM) was 100%, the “% Inhibition Beta-Lactam Hydrolysis” value ([3]; inhibitor 1.0 μM) was 81.2% and the “% Inhibition Beta-Lactam Hydrolysis” value ([3]; inhibitor 16.5 μM) was 100%. For the same compound, the “% Inhibition Beta-Lactam Hydrolysis” value ([3]; inhibitor 66 μM) was 100%.

Compound `CC1(C)[C@H](C(=O)O)N2C(=O)C[C@H]2S1(=O)=O` [B, Penicillanic acid 1,1-dioxide] has an inhibition at 16.5 µM ([4]; inhibitor 16.5 μM) of 5%, an inhibition at 66 µM ([4]; inhibitor 66 μM) of 27.5% and an inhibition at 1 µM [1, 12] of 0%. For the same compound, the inhibition at 16.5 µM [1, 12] was 95%, the inhibition at 66 µM [1, 12] was 100% and the “% Inhibition Beta-Lactam Hydrolysis” value ([2]; inhibitor 1.0 μM) was 97.0%. The “% Inhibition Beta-Lactam Hydrolysis” value ([2]; inhibitor 16.5 μM) was 100%, the “% Inhibition Beta-Lactam Hydrolysis” value ([2]; inhibitor 66 μM) was 100% and the “% Inhibition Beta-Lactam Hydrolysis” value ([3]; inhibitor 16.5 μM) was 100%. The “% Inhibition Beta-Lactam Hydrolysis” value ([3]; inhibitor 66 μM) was 100%, the MIC [5] was greater than 200 µg/mL and the MIC [6] was 200 µg/mL. The MIC [7] was 200 µg/mL, the MIC [8] was 100 µg/mL and the MIC [9] was 50 µg/mL. For the same compound, the MIC [10] was 200 µg/mL, the MIC [11] was 100 µg/mL and the MIC (Proteus morgani 57G001) was 200 µg/mL. It also gave an MIC (Escherichia coli 51A266) of 25 µg/mL.
